“And” between values parts separate entries of the source, which are not always exact repeats. Identical values can stand only once.
Test system: absolute ethanol-induced ulcer
Experiment: absolute ethanol-induced ulcer model (anti-ulcerogenic activity)
Type: in vivo, Wistar rats
Conditions: rats, oral, ranitidine 100 mg/kg, TAE 1000 mg/kg, 1 and 2 50 mg/kg; for score (lesion score): scoring system 0-5; for score (lesion score) / No. of ulcers / ulcer index: n = 6; for No. of ulcers / ulcer index: mean ± SD
Experimental: Evaluation of the anti-ulcerogenic activity was carried out using absolute ethanol-induced ulcer model as described by Muthu et al. Int. J. Pharm. Pharm. Sci. 2013, 5, Suppl1, 269-272.
About 30 Wistar rats were used, they divided into 5 groups each of 6 rats. Group 1 received the vehicle and served as control group, group 2 received ranitidine (100 mg/kg) and served as standard group, groups 3 received the total alcohol extract of the plant under investigation at a dose of 1000 mg/kg. groups 4 and 5 received the isolated compounds 1 and 2 at dose 50 mg/kg respectively.
Rats of all groups were fasted for 24 h then all medications were administered orally. One hour after treatment, the animals received an oral dose of absolute ethanol (1 ml/200 g) and then sacrificed one hour later, by ether inhalation, the stomachs were rapidly removed, opened along their greater curvature and gently rinsed under running tap water.
Number of lesions in the glandular part of the stomach were measured under an illuminated magnifying microscope (10×). Long lesions were counted and their lengths were measured. Petechial lesions were counted, and then each five petechial lesions were taken as 1 mm of ulcer.
The lesion scores: the mucosal lesions were quantified by the scoring system (0-5) 0=no damage, 1=Local edema and inflammation without ulcers; 2=One ulcer without inflammation; 3=one to two ulcers with inflammation & lesion diameter <1 cm; 4=More than two ulcers with lesion diameter 1-2 cm; 5=Sever ulceration with lesion diameter >2 cm.
Ulcer index To calculate the ulcer index (mm), the sum of the total length of long ulcers and petechial lesions in each group of rats was divided by its number. The curative ratio was determined according to the formula: % Protection of control ulcer=Control UI−Test UI/Control UI×100

Compound | score (lesion score) | % protection of control ulcer | % protection of control ulcer (listed as ranitidine) | No. of ulcers | ulcer index [mm]
CNC(=C[N+](=O)[O-])NCCSCc1ccc(CN(C)C)o1 [Ranitidine, ranitidine, reference compound] | 2.2 | 46.2% | 46.2% and 44.6% | 7.2 ± 0.84 | 7 ± 1.58
CCCCOC(=O)C(O)CCC(=O)O (stereo not shown) [Compound 2, 4-hydroxy-5-n-butoxy-5-oxopentanoic acid] | 2 | 55.5% and 55.3% |  | 3.6± 2.97 | 5.8 ± 3.42
CCCCCCCCCCCCCCCCCCCCCCCC(=O)O [Compound 1, tetracosanoic acid] | 1 | 80% |  | 2 ± 2.74 | 2.6 ± 3.58
